Data reported in patent US20210301315A1, “METHODS FOR TREATING POLYMICROBIAL INFECTIONS” (priority 2017, published 2021).

Tests used:
[1] = tested on: bacterial organisms present in patient urine sample; experiment: Antibiotic Resistance (ABR) assay utilizing agar-containing medium; assay type: cell-based; details: for overall sensitivity of the bacteria in the sample to the antibiotic (in words): Example 2 sample
Method: Urine samples suitable for processing with this assay are collected, transported, and stored using BD Vacutainer (gray top) tubes or other suitable leak-proof sterile container. Urine samples may be held at room temperature for 48 hours before test results are compromised.
Antibiotic stocks are stored at 2-8° C. and protected from direct sunlight. Prepared antibiotic stock solutions were aliquoted into a 96-deep well plate (Thermo Fisher Scientific) to form an Antibiotic Source Plate, as shown in FIG. 11 and identified by antibiotic name and concentration (μg/mL; 10× final concentration). […] One well was designated AB-blend which contained a combination of antibiotics to ensure there was no bacterial growth.
One hundred microliters of Mueller-Hinton agar medium was aliquoted into each appropriate well position of a 96-well microplate (VIS 96/F-PS, Eppendorf). The medium was allowed to solidify at room temperature for at least 10 min.
The antibiotics (10 μL) at various concentrations were then aliquoted into desired wells from the Antibiotic Source Plate. After the antibiotics were introduced to the agar medium, the ABR microplates were allowed to sit for at least 1 hr before use. If long-term storage is required, ABR microplates containing antibiotic-infuse agar are stored at 2-8° C. in the dark.
At the time of testing, urine samples were diluted 1:20 in sterile saline and vortexed. Each patient sample utilized a single ABR microplate. Five microliters of diluted patient sample were added to each well of the room temperature microplate, the plate was sealed and incubated for 16-18 hr at 37° C.
After incubation, the plate was removed from the incubator and carefully uncovered. Two-hundred microliters of deionized water were added to each well to suspend cells present above the agar and the plates incubated at room temperature for 30 min. After 30 min, 100 μl from each well was removed to a new plate and the OD600 was determined in a spectrophotometer. Five separate reads were taken of each plate and a mean OD600 measurement calculated.
Controls include: No-antibiotic control, Negative control plate, and AB-Blend. No antibiotic control: Any well containing medium that is not infused with antibiotics to ensure viability of bacterial cells present in patient urine samples and included in each plate. […] Negative control plate: Microplate containing antibiotic-infused agar medium without addition of patient sample or cultured bacterial organisms to ensure non-contamination of reagents. AB-Blend: One or more wells containing a combination of antibiotics to ensure there is no bacterial growth.
The raw data was then “blanked” using the measurement obtained from the AB-Blend well, as depicted in Table 5.
(§1) To determine whether bacterial organisms present in the patient samples were resistant or sensitive to a particular antibiotic at a certain concentration, blanked OD readings were compared to a threshold OD600 of 0.025 (Table 6). Any OD measurement greater than or equal to this threshold was designated Resistant (R) meaning bacterial organisms present in patient sample were resistant to that particular antibiotic at that certain concentration. Any OD measurement less than this threshold was designated Sensitive (S) meaning bacterial organisms present in patient sample were sensitive to that particular antibiotic at that certain concentration.

[2] = tested on: bacterial organisms present in patient urine sample; experiment: Antibiotic Resistance (ABR) assay utilizing liquid growth medium; assay type: cell-based; details: liquid medium; for overall sensitivity of the bacteria in the sample to the antibiotic (in words): Example 4 sample
Method: Urine samples suitable for processing with this assay are collected, transported, and stored using BD Vacutainer tubes or other suitable leak-proof sterile containers. Urine samples may be held at room temperature for 48 hours before test results are compromised.
Antibiotic stocks are stored at 2-8° C. and protected from direct sunlight. Prepared antibiotic stock solutions were aliquoted into a 96-deep well plate (ThermoFisher Scientific) to form a 50× Antibiotic Source Plate and then diluted 1:5 to form a 10× Antibiotic Source Plate, as shown in FIG. 12 where each well is identified by antibiotic name and concentration (μg/mL; 10× final concentration). […] One well was assigned sodium azide to ensure no bacterial growth would be observed in that well.
Twenty microliters of each antibiotic solution were aliquoted into the pre-determined wells of a 96-well microplate (VIS 96/F-PS, Eppendorf) from the 10× Antibiotic Source Plate to create ABR testing plates for inoculation. These ABR testing plates were allowed to sit for up to 24 hours before use at 2-8° C. in the dark.
At the time of testing, urine samples were centrifuged to concentrate any bacterial cells and then mixed with liquid Mueller-Hinton medium and incubated for 6-16 hours at 37° C. After this initial incubation, the sample is diluted to 0.5-0.6 McF in saline and then 500 μl of that suspension was added to […] of Mueller-Hinton medium. One-hundred and eighty microliters of the diluted sample is then aliquoted to each well of the ABR microplate already containing 10× antibiotic solution, bringing all of the antibiotics to the desired final concentration. The plate is then sealed and incubated for 12-16 hours at 37° C.
After incubation, the plate was removed from the incubator and carefully uncovered and the OD600 was determined for each appropriate well by spectrophotometer. Five separate measurements were taken of each well on a plate and the mean OD600 measurement calculated for each well.
Controls are depicted in Table 10.
The raw data was then “blanked” using the measurement obtained from the Na-Azide well, as depicted in Table 14.
as §1, with “0.065” for “0.025”, “15). An” for “6). Any”

SMILES	overall sensitivity of the bacteria in the sample to the antibiotic (in words) [1]	Blanked (OD600 minus AB-Blend well) ([1]; antibiotic 1 μg/mL)	Mean (OD600) ([1]; antibiotic 1 μg/mL)	Blanked (OD600 minus AB-Blend well) ([1]; antibiotic 2 μg/mL)	Mean (OD600) ([1]; antibiotic 2 μg/mL)	Blanked (OD600 minus AB-Blend well) ([1]; antibiotic 4 μg/mL)	Mean (OD600) ([1]; antibiotic 4 μg/mL)	Blanked (OD600 minus AB-Blend well) ([1]; antibiotic 8 μg/mL)	Mean (OD600) ([1]; antibiotic 8 μg/mL)	Blanked (OD600 minus Na-Azide well) ([2]; antibiotic 1 μg/mL)	Mean (OD600) ([2]; antibiotic 1 μg/mL)	Blanked (OD600 minus Na-Azide well) ([2]; antibiotic 4 μg/mL)	Mean (OD600) ([2]; antibiotic 4 μg/mL)	Blanked (OD600 minus Na-Azide well) ([2]; antibiotic 8 μg/mL)	Mean (OD600) ([2]; antibiotic 8 μg/mL)	Blanked (OD600 minus AB-Blend well) ([1]; antibiotic 16 μg/mL)	Mean (OD600) ([1]; antibiotic 16 μg/mL)	Blanked (OD600 minus AB-Blend well) ([1]; antibiotic 32 μg/mL)	Mean (OD600) ([1]; antibiotic 32 μg/mL)	Blanked (OD600 minus Na-Azide well) ([2]; antibiotic 32 μg/mL)	further results
C[C@@H](O)[C@H]1C(=O)N2C(C(=O)O)=C(S[C@@H]3CN[C@H](C(=O)N(C)C)C3)[C@H](C)[C@H]12 [Meropenem, meropenem]	sensitive	0.0008	0.0392	0.0004	0.0388	0.0006	0.0390	0.0001	0.0385	0.1741	0.2198	0.1099	0.1556	0.0039	0.0496						Blanked (OD600 minus Na-Azide well) ([2]; antibiotic 2 μg/mL): 0.1471; Mean (OD600) ([2]; antibiotic 2 μg/mL): 0.1928
CC1(C)S[C@@H]2[C@H](NC(=O)[C@H](N)c3ccccc3)C(=O)N2[C@H]1C(=O)O [Ampicillin, ampicillin]								0.4496	0.4880					−0.0040	0.0417	0.4838	0.5222	0.4440	0.4824	−0.0039	Blanked (OD600 minus Na-Azide well) ([2]; antibiotic 16 μg/mL): −0.0038; Mean (OD600) ([2]; antibiotic 16 μg/mL): 0.0419; Mean (OD600) ([2]; antibiotic 32 μg/mL): 0.0418; overall sensitivity of the bacteria in the sample to the antibiotic (in words) [2]: sensitive
CO[C@@]1(NC(=O)Cc2cccs2)C(=O)N2C(C(=O)O)=C(COC(N)=O)CS[C@@H]21 [Cefoxitin, cefoxitin]	sensitive					0.0017	0.0401	0.0008	0.0392			0.1745	0.2202	0.1831	0.2288	0.0005	0.0389	0.0005	0.0389	0.1891	Mean (OD600) ([2]; antibiotic 32 μg/mL): 0.2348
O=C(O)c1cn(C2CC2)c2cc(N3CCNCC3)c(F)cc2c1=O [Ciprofloxacin, ciprofloxacin]	sensitive	0.0024	0.0408	0.0030	0.0414	0.0003	0.0387			−0.0016	0.0441	−0.0034	0.0423								overall sensitivity of the bacteria in the sample to the antibiotic (in words) [2]: sensitive
CO/N=C(\C(=O)N[C@@H]1C(=O)N2C(C(=O)O)=C(CSc3nc(=O)c(=O)[nH]n3C)CS[C@H]12)c1csc(N)n1 [Ceftriaxone, ceftriaxone]	sensitive	0.0061	0.0445	0.0048	0.0432	0.0021	0.0405	0.0008	0.0392	0.2028	0.2485	0.1900	0.2357	0.1992	0.2449	0.0007		0.0002	0.0386		Blanked (OD600 minus AB-Blend well) ([1]; antibiotic 64 μg/mL): 0.0001; Mean (OD600) ([1]; antibiotic 64 μg/mL): 0.0385; Blanked (OD600 minus Na-Azide well) ([2]; antibiotic 64 μg/mL): 0.1899; Mean (OD600) ([2]; antibiotic 64 μg/mL): 0.2356
CN[C@H](CC(C)C)C(=O)N[C@H]1C(=O)N[C@@H](CC(N)=O)C(=O)N[C@H]2C(=O)N[C@H]3C(=O)N[C@H](C(=O)N[C@H](C(=O)O)c4cc(O)cc(O)c4-c4cc3ccc4O)[C@H](O)c3ccc(c(Cl)c3)Oc3cc2cc(c3O[C@@H]2O[C@H](CO)[C@@H](O)[C@H](O)[C@H]2O[C@H]2C[C@](C)(N)[C@H](O)[C@H](C)O2)Oc2ccc(cc2Cl)[C@H]1O [Vancomycin, vancomycin]										0.0047	0.0504	−0.0032	0.0425				0.4918			−0.0031	Blanked (OD600 minus Na-Azide well) ([2]; antibiotic 2 μg/mL): −0.0022; Mean (OD600) ([2]; antibiotic 2 μg/mL): 0.0435; Blanked (OD600 minus Na-Azide well) ([2]; antibiotic 16 μg/mL): −0.0026; Mean (OD600) ([2]; antibiotic 16 μg/mL): 0.0431; Mean (OD600) ([2]; antibiotic 32 μg/mL): 0.0426; overall sensitivity of the bacteria in the sample to the antibiotic (in words) [2]: sensitive
